Columns and labels:
[1] = biological target: Histone deacetylase 4 (Homo sapiens, UniProt P56524); experiment: Inhibition of human recombinant HDAC4 using ArgHisLysLys(Ac) as substrate by fluorescence based analysis
[2] = biological target: Histone deacetylase 5 (Homo sapiens, UniProt Q9UQL6); experiment: Inhibition of human recombinant HDAC5 using ArgHisLysLys(Ac) as substrate by fluorescence based analysis
[3] = biological target: T1, Histone deacetylase 8 (Homo sapiens, UniProt Q9BY41); experiment: Inhibition of human recombinant HDAC8 using ArgHisLysLys(Ac) as substrate by fluorescence based analysis
T1 sequence (Q9BY41 whole entry): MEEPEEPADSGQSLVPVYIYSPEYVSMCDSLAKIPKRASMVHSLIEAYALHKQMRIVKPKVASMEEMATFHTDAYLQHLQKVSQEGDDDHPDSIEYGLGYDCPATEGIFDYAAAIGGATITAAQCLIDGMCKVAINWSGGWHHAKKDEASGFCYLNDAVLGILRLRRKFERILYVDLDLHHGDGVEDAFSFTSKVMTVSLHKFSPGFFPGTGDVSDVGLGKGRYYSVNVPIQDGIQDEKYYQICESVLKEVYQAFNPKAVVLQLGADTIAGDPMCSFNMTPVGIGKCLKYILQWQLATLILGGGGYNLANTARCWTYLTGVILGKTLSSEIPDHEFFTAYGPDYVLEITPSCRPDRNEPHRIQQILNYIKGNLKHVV

[4] = biological target: T2, Protein deacetylase HDAC6 (Homo sapiens, UniProt Q9UBN7); experiment: Inhibition of human recombinant HDAC6 using ArgHisLysLys(Ac) as substrate by fluorescence based analysis
T2 sequence (Q9UBN7 whole entry): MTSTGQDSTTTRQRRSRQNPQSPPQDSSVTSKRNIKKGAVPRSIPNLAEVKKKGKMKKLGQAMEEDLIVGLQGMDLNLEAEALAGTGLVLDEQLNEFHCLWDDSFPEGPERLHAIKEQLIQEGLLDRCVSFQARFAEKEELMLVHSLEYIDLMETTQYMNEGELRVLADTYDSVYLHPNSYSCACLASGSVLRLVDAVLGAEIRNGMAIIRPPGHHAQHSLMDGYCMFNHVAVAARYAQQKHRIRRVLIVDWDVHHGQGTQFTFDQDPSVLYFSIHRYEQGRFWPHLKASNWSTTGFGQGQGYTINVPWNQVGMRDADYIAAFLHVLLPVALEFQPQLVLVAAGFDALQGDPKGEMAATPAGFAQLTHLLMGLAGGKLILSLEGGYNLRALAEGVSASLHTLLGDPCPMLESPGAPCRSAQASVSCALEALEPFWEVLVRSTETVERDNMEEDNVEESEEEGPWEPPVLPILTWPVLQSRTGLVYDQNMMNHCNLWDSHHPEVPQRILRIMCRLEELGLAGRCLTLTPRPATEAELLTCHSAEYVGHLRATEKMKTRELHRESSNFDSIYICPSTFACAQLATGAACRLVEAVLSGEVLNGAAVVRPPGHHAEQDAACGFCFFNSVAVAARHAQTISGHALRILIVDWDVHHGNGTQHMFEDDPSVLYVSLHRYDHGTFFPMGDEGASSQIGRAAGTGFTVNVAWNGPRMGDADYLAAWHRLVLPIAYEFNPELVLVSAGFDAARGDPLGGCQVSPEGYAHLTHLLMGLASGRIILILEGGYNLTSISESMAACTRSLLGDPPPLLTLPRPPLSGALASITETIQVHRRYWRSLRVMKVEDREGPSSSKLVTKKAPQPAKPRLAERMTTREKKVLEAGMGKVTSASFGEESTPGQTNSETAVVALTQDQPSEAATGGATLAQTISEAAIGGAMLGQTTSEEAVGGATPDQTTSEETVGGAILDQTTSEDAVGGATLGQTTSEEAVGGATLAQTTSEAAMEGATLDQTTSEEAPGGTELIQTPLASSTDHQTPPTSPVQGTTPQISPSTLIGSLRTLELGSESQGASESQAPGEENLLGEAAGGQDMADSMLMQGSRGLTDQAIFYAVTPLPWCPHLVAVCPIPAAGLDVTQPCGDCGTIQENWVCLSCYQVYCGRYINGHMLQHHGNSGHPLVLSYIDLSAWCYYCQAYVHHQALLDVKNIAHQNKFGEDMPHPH

[5] = biological target: T3, Histone deacetylase 11 (Homo sapiens, UniProt Q96DB2); experiment: Inhibition of human recombinant HDAC11 using ArgHisLysLys(Ac) as substrate by fluorescence based analysis
T3 sequence (Q96DB2 whole entry): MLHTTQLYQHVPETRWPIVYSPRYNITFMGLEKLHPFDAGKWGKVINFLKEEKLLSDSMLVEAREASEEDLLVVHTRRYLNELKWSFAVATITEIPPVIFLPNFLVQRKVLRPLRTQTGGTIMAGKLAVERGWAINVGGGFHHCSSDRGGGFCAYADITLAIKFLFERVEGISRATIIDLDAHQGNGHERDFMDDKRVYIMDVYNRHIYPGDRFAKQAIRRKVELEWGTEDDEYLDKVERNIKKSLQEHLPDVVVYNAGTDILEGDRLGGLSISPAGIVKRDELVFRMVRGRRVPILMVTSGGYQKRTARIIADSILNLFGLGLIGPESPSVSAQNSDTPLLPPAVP

[6] = biological target: Histone deacetylase 9 (Homo sapiens, UniProt Q9UKV0); experiment: Inhibition of human recombinant HDAC9 using ArgHisLysLys(Ac) as substrate by fluorescence based analysis
[7] = biological target: Histone deacetylase 1 (Homo sapiens, UniProt Q13547); experiment: Inhibition of human recombinant HDAC1 using ArgHisLysLys(Ac) as substrate by fluorescence based analysis
[8] = biological target: Histone deacetylase 3 (Homo sapiens, UniProt O15379); experiment: Inhibition of human recombinant HDAC3 using ArgHisLysLys(Ac) as substrate by fluorescence based analysis
Sequence of Histone deacetylase 3 (O15379 whole entry): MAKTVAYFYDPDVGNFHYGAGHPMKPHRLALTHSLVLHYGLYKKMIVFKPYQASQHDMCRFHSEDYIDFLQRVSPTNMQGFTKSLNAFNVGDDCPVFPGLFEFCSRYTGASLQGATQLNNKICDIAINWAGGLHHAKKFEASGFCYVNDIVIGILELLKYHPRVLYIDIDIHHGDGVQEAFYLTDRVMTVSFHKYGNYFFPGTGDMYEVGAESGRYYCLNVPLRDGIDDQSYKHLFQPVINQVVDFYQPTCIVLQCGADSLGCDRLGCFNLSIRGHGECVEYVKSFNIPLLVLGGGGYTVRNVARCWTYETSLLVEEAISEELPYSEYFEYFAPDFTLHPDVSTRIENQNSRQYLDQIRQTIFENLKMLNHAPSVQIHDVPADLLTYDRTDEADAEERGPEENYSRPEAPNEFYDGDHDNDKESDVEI

Sequence of Histone deacetylase 4 (P56524 whole entry): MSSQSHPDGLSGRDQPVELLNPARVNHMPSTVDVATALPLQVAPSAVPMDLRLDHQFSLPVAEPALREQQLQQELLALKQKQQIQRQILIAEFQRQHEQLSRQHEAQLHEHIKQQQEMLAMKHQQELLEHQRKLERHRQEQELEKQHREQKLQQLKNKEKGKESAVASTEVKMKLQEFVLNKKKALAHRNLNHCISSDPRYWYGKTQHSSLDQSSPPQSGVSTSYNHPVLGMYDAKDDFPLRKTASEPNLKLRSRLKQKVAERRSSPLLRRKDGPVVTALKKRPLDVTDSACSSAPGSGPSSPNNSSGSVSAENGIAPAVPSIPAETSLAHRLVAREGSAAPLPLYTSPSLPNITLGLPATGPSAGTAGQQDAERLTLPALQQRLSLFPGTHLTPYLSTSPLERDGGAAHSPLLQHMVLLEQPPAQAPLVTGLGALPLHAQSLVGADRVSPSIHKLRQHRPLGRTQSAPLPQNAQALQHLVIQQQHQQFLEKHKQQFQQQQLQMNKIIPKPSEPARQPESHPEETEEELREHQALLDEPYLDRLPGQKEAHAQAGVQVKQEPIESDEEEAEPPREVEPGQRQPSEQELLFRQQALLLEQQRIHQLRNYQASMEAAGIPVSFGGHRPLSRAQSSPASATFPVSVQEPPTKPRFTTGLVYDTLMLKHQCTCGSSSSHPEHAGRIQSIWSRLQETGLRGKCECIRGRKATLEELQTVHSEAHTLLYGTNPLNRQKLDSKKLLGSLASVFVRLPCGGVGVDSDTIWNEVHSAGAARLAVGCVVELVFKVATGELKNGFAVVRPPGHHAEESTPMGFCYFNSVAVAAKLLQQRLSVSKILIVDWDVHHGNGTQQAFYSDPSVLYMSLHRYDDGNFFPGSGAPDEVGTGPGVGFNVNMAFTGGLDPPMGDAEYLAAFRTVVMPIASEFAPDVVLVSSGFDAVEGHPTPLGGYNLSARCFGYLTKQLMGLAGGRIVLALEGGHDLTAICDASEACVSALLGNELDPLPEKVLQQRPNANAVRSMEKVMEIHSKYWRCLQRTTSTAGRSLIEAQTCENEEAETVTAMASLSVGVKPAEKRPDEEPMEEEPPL
Sequence of Histone deacetylase 1 (Q13547 whole entry): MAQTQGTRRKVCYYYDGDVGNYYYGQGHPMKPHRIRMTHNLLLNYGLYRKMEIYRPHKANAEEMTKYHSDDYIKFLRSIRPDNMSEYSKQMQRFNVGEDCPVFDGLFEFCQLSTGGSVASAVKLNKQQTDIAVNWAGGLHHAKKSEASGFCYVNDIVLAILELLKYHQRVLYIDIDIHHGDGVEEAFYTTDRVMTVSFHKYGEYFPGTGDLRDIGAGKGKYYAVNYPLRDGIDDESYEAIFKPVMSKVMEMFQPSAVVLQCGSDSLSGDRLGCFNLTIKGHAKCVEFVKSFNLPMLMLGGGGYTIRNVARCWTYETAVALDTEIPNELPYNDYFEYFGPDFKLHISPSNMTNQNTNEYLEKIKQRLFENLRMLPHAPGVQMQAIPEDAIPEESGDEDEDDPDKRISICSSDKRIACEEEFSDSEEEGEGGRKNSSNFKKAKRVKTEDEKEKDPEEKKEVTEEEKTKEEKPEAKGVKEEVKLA
Sequence of Histone deacetylase 5 (Q9UQL6 whole entry): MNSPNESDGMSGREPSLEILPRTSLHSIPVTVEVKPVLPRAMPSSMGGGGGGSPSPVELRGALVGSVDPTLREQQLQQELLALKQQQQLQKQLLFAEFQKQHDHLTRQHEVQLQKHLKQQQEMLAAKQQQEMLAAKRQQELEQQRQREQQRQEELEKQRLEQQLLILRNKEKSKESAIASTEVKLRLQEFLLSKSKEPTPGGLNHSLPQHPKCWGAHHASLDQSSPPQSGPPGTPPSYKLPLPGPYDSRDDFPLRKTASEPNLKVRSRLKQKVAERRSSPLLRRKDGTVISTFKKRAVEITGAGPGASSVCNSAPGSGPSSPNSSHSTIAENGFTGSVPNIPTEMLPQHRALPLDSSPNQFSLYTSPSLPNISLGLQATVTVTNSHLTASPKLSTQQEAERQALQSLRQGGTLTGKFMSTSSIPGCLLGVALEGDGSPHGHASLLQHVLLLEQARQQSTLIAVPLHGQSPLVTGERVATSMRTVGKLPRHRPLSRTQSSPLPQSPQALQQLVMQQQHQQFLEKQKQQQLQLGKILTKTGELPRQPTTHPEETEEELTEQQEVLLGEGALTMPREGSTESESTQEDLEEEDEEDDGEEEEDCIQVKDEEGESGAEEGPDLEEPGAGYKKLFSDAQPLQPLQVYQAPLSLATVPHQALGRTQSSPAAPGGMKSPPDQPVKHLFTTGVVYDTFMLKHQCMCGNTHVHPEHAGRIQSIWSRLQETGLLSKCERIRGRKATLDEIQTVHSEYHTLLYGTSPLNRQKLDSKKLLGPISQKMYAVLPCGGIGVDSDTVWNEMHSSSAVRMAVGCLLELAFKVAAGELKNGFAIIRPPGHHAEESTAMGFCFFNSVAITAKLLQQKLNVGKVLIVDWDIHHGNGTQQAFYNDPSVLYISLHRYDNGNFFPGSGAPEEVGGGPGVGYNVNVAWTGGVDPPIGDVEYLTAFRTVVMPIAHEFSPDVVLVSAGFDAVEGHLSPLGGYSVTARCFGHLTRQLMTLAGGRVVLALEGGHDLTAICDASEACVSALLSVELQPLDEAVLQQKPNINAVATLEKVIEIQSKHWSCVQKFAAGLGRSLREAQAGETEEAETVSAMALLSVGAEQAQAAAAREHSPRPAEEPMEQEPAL
Sequence of Histone deacetylase 9 (Q9UKV0 whole entry): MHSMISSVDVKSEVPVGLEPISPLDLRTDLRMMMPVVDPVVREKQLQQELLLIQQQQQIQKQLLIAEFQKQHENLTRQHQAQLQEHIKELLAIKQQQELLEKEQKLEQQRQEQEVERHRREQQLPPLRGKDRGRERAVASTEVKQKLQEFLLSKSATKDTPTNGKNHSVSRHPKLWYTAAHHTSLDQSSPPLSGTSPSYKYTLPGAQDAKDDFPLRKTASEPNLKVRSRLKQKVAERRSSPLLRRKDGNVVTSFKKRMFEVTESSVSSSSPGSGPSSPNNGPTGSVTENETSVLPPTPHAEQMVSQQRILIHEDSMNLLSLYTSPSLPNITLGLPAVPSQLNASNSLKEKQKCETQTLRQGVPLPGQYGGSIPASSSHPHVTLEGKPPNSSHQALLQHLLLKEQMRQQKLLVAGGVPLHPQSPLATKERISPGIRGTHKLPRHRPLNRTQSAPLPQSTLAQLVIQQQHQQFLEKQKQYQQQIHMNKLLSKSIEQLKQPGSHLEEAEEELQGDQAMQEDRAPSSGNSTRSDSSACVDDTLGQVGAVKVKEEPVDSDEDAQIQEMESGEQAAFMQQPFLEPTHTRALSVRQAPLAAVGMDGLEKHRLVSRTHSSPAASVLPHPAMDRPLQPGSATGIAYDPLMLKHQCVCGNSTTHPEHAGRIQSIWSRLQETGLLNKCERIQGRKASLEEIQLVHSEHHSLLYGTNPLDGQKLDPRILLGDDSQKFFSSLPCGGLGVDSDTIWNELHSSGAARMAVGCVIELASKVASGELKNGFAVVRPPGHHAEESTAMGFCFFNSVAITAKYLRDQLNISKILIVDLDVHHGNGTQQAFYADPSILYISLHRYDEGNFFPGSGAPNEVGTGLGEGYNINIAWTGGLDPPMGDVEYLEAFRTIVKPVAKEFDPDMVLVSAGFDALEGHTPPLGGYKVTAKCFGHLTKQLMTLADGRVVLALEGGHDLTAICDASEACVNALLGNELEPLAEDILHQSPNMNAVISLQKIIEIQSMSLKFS

O=C(CCCCCC1CNC1=O)Nc1ccccc1 (configuration not stated)
IC50 [1]: > 1000 µM | IC50 [2]: > 1000 µM | IC50 [3]: > 1000 µM | IC50 [4]: 74.5 µM | IC50 [5]: > 1000 µM | IC50 [6]: > 1000 µM | IC50 [7]: > 1000 µM | IC50 [8]: > 1000 µM

O=C(CCCCC[C@@H]1CN(O)C1=O)Nc1ccccc1
IC50 [1]: > 1000 µM | IC50 [2]: > 1000 µM | IC50 [3]: > 1000 µM | IC50 [4]: 132 µM | IC50 [5]: > 1000 µM | IC50 [6]: > 1000 µM | IC50 [7]: > 1000 µM | IC50 [8]: > 1000 µM

Nc1ccccc1N1CC(CCCCCC(=O)Nc2ccccc2)C1=O (configuration not stated)
IC50 [1]: > 1000 µM | IC50 [2]: > 1000 µM | IC50 [3]: > 1000 µM | IC50 [4]: > 1000 µM | IC50 [5]: > 1000 µM | IC50 [6]: > 1000 µM | IC50 [7]: > 1000 µM | IC50 [8]: > 1000 µM

O=C(CCCCC[C@H]1CN(O)C1=O)Nc1ccccc1
IC50 [1]: > 1000 µM | IC50 [2]: > 1000 µM | IC50 [3]: > 1000 µM | IC50 [4]: 174 µM | IC50 [5]: > 1000 µM | IC50 [6]: > 1000 µM | IC50 [7]: > 1000 µM | IC50 [8]: > 1000 µM
